Measured values as given in ChEMBL document CHEMBL1201862, “PubChem BioAssay data set” (2004).
Active and inactive are the calls of the source.

Tests used:
[1] = target: DNA dC->dU-editing enzyme APOBEC-3G (Homo sapiens, UniProt Q9HC16); experiment: Dose Response confirmation of small molecule APOBEC3G DNA Deaminase Inhibitors via a fluorescence-based single-stranded DNA deaminase assay. [Related pubchem assays (depositor defined):AID493012, AID493028]; assay type: functional
[2] = target: DNA dC->dU-editing enzyme APOBEC-3A (Homo sapiens, UniProt P31941); experiment: APOBEC3A DNA deaminase inhibitors, dose response, biochemical (AID 504722); assay type: functional
DNA dC->dU-editing enzyme APOBEC-3A, sequence (P31941 whole entry): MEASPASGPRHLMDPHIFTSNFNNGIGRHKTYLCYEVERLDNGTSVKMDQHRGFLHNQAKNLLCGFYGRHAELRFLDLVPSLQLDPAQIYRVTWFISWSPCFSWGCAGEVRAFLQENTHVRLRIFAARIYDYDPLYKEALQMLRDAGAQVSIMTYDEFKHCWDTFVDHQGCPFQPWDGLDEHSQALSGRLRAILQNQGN

cells [3] = experiment: cells
[4] = target: Induced myeloid leukemia cell differentiation protein Mcl-1 (Homo sapiens, UniProt Q07820); assay type: functional
Induced myeloid leukemia cell differentiation protein Mcl-1, sequence (Q07820 whole entry): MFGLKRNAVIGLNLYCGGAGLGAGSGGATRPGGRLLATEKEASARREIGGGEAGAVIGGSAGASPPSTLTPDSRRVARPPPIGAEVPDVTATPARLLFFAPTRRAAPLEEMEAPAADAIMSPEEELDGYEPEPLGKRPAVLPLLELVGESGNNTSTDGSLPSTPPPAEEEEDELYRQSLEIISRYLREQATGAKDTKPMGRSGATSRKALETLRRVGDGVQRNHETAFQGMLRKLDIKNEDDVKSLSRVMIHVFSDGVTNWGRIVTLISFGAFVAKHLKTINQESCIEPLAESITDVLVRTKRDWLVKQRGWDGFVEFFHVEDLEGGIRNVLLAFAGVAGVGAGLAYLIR

[5] = target: T1, Mannose-6-phosphate isomerase (Homo sapiens, UniProt P34949); experiment: inhibitors of human PMI, primary screen, biochemical, fluorescence intensity, coupled assay (AID 1209)
T1 sequence (P34949 whole entry): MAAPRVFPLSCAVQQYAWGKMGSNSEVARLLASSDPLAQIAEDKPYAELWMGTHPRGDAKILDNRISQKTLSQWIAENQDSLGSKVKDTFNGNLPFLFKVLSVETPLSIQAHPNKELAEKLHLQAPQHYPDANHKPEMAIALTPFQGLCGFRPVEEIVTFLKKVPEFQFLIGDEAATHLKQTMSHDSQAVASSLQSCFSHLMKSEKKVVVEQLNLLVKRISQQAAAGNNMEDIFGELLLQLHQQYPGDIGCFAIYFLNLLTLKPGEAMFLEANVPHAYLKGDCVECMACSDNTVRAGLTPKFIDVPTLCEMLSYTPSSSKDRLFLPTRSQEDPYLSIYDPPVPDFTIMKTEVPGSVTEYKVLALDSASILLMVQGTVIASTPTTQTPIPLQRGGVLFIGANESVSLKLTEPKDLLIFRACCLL

[6] = target: Eukaryotic translation initiation factor 4E (Mus musculus, UniProt P63073); experiment: eIF4E–eIF4G protein interaction inhibitors, dose response, biochemical, TR-FRET (AID 855); assay type: functional;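 further: potency for disrupting eIF4E binding to eIF4GI seen as loss of FRET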
Eukaryotic translation initiation factor 4E, sequence (P63073 whole entry): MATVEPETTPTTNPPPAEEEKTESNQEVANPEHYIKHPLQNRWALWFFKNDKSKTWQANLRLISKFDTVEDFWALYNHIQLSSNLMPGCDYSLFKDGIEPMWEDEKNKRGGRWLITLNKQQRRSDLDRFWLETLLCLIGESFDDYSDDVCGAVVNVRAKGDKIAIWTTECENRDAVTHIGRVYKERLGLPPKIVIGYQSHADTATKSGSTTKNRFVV

[7] = target: T2, Epstein-Barr nuclear antigen 1 (Epstein-Barr virus (strain B95-8) (HHV-4) (Human herpesvirus 4), UniProt P03211); experiment: EBNA-1 inhibitors, dose response, biochemical, fluorescence polarization, 1536-well (AID 2381); set-up: species or system human gammaherpesvirus 4;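 further: fluorescence polarization of a Cy5 DNA probe bound by EBNA-1 protein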
T2 sequence (P03211 whole entry): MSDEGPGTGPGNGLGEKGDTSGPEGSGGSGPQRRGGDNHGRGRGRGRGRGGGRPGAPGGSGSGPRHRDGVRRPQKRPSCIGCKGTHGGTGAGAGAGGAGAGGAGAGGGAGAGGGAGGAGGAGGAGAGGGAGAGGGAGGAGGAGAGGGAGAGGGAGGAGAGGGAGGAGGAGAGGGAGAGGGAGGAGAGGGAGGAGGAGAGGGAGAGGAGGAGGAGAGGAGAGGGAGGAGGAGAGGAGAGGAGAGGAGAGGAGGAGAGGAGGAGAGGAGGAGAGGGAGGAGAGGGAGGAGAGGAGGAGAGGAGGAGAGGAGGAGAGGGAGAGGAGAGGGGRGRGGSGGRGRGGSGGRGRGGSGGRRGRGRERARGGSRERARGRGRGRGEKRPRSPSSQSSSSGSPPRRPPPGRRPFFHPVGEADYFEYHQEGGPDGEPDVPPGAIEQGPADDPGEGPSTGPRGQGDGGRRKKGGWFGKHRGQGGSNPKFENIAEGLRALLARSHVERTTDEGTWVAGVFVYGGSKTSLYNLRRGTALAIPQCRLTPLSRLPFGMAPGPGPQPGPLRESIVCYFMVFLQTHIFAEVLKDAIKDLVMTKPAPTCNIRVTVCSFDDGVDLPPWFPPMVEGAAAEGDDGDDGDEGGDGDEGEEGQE

[8] = target: T3, RNA-binding protein pos-1 (Caenorhabditis elegans, UniProt G5EF15); experiment: inhibitors of POS-1/mex-3 RNA binding, dose response, biochemical, fluorescence polarization (AID 1964);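 further: purified POS-1 fused to maltose binding protein made in E. coli; potency of compounds blocking POS-1 binding to fluorescent RNA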
T3 sequence (G5EF15 whole entry): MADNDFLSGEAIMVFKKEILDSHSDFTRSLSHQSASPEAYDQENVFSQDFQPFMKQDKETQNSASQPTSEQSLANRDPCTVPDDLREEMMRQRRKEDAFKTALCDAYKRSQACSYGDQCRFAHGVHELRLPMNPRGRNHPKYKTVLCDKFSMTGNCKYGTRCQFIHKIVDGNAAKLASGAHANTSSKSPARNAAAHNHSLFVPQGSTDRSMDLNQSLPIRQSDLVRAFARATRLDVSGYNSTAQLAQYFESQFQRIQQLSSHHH

[9] = target: T4, Lytic switch protein BZLF1 (Epstein-Barr virus (strain B95-8) (HHV-4) (Human herpesvirus 4), UniProt P03206); experiment: EBV ZTA inhibitors, dose response, counter-screen for EBNA-1 inhibitor project, biochemical, fluorescence polarization, Epstein-Barr virus, 1536-well (AID 2377); set-up: species or system human gammaherpesvirus 4;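 further: fluorescence polarization of Cy5-labelled ZRE DNA probe bound by purified Zta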
T4 sequence (P03206 whole entry): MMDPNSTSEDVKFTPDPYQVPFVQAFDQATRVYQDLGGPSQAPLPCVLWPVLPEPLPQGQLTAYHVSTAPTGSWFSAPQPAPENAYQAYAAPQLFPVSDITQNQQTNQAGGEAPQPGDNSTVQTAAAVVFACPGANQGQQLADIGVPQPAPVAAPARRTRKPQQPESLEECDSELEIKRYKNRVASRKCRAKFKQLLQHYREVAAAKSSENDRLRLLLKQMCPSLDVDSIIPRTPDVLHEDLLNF

[10] = target: T5, Zinc finger protein mex-5 (Caenorhabditis elegans, UniProt Q9XUB2); experiment: MEX-5/TCR-2 RNA interaction inhibitors, dose response, biochemical, C. elegans, fluorescence polarization (AID 1960)
T5 sequence (Q9XUB2 whole entry): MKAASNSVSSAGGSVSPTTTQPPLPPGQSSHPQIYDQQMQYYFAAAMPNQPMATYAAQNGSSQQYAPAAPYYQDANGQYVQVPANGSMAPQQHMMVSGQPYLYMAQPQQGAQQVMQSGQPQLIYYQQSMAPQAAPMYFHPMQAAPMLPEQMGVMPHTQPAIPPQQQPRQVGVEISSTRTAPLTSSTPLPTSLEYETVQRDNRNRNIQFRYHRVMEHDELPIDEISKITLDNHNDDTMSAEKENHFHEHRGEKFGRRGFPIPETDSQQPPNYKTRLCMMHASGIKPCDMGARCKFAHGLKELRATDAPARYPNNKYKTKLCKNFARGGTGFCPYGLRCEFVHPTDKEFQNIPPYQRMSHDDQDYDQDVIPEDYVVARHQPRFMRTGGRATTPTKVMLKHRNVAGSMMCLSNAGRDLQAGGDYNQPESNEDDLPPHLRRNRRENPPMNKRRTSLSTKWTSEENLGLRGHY

Mucolipin-3 = target: T6, Mucolipin-3 (Homo sapiens, UniProt Q8TDD5); experiment: Dose response cell-based high-throughput screening assay for agonists of the transient receptor potential channel ML3 (TRPML3). [Related pubchem assays: 1526, 1424, 1448 ]; assay type: functional
T6 sequence (Q8TDD5 whole entry): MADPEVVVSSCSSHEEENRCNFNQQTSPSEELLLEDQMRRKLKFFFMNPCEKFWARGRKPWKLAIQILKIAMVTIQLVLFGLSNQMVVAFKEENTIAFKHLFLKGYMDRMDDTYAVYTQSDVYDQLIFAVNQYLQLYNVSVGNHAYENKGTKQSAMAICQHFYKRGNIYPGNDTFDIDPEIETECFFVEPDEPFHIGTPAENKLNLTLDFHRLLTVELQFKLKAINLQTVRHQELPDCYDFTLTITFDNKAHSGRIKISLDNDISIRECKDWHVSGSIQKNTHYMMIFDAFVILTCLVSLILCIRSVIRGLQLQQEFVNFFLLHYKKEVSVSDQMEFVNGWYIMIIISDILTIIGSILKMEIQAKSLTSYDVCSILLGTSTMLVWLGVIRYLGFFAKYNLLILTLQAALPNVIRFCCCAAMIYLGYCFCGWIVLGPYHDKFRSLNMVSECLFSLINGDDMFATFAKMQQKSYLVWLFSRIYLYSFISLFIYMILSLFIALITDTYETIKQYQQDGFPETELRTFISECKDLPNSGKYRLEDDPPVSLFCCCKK

Ion channel NompC = Ion channel NompC (Danio rerio, UniProt Q7T1G6); experiment: Fluorescence counterscreen assay for TRPML3 agonists: dose response cell-based high-throughput screening assay to identify agonists of the transient receptor potential channel N1 (TRPN1). [Related pubchem assays: 1526, 1424, 1448 ]; assay type: functional
Ion channel NompC, sequence (Q7T1G6 whole entry): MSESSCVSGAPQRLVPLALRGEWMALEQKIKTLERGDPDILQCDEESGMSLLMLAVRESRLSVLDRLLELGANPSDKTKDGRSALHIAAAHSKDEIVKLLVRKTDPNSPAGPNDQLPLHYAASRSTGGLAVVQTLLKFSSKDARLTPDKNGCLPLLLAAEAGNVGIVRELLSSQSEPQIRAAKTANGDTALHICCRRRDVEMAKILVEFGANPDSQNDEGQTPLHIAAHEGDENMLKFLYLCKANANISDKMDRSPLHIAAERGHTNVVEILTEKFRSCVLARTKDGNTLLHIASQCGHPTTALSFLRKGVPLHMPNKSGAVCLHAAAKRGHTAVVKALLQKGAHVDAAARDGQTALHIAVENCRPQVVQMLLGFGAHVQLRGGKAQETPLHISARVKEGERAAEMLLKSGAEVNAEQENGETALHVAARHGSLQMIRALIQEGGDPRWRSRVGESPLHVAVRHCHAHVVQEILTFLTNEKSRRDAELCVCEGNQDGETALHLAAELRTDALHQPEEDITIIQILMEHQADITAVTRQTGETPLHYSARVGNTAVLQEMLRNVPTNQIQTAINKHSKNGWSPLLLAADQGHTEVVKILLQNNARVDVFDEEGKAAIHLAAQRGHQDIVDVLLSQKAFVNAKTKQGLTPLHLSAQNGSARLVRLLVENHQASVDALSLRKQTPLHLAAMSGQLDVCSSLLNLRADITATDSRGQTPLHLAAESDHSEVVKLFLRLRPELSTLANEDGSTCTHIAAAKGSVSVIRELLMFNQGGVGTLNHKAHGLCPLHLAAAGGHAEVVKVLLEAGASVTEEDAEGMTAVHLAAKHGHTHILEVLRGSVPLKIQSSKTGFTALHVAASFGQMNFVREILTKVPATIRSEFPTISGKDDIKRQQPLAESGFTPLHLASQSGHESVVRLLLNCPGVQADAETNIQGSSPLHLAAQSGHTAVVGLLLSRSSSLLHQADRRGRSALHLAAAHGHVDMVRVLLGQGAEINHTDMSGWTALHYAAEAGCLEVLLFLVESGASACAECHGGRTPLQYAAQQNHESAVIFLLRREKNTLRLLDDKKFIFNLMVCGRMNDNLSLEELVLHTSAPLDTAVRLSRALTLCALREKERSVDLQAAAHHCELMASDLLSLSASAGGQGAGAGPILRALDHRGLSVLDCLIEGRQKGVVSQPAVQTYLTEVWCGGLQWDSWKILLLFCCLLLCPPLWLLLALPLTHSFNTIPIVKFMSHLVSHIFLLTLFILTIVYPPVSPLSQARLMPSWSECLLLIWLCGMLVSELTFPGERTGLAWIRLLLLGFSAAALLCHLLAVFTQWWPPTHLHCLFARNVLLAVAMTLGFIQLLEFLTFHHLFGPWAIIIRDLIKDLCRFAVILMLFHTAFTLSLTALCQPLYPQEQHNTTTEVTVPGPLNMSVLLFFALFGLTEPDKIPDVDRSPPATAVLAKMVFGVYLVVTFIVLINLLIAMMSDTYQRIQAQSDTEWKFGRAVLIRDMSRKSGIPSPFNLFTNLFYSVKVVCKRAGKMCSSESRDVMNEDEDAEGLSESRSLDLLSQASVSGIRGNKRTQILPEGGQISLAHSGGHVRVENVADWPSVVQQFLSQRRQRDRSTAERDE

Leucine aminopeptidase = target: T7, Leucine aminopeptidase (Plasmodium falciparum 3D7, UniProt Q8IL11); experiment: P. falciparum M17LAP inhibitors, primary screen, biochemical, fluorogenic H-Leu-NHMec substrate, 1536-well (AID 1619); assay type: functional
T7 sequence (Q8IL11 whole entry): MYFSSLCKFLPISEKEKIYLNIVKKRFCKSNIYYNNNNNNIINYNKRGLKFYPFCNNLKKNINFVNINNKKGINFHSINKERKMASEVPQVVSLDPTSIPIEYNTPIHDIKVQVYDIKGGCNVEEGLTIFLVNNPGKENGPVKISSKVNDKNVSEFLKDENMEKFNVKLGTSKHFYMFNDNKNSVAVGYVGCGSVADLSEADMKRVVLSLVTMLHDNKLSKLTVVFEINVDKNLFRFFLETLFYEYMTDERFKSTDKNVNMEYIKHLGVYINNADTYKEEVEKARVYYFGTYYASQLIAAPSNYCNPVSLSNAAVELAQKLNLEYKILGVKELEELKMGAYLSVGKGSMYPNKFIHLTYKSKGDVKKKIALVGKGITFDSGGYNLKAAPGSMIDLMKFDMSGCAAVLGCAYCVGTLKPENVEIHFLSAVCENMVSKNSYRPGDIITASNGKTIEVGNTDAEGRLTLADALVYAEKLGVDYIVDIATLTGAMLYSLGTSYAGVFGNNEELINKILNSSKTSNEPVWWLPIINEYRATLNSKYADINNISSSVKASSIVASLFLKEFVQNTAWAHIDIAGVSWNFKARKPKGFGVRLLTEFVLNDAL

[11] = target: FAD-linked sulfhydryl oxidase ALR (Homo sapiens, UniProt P55789); experiment: inhibitors of human ALR sulfhydryl oxidase, dose response, biochemical, H2O2 detection, luminescence, cherry-pick (AID 493248)
FAD-linked sulfhydryl oxidase ALR, sequence (P55789 whole entry): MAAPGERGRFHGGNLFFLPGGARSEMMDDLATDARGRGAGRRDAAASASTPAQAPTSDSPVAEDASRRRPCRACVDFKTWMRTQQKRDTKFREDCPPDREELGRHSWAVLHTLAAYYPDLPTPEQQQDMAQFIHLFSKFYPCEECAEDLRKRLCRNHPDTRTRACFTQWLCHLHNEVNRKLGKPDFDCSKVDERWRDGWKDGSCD

cells [12] = assay type: functional, cell-based
cells [13] = assay type: functional, cell-based; remark: listed apart in the source
[14] = target: T1, Mannose-6-phosphate isomerase; experiment: human PMI inhibitors, high substrate, primary screen, biochemical, fluorescence intensity, high mannose 6-phosphate (AID 1220)
[15] = cytotoxicity in HPDE-C7 cells, cell-based, fluorescence, HTS (AID 430); assay type: functional; conditions: Homo sapiens
[16] = cytotoxicity in KRAS-transformed pancreatic duct cells, primary screen, cell-based, fluorescence, HTS (AID 431); assay type: functional; conditions: Homo sapiens;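 further: cell line used: HPDE-C7K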
Estrogen receptor beta = Estrogen receptor beta (Homo sapiens, UniProt Q92731); experiment: ERβ–SRC-3 coactivator interaction inhibitors, confirmation, orthogonal assay, biochemical, ELISA, streptavidin-HRP readout (AID 1060)
Estrogen receptor beta, sequence (Q92731 whole entry): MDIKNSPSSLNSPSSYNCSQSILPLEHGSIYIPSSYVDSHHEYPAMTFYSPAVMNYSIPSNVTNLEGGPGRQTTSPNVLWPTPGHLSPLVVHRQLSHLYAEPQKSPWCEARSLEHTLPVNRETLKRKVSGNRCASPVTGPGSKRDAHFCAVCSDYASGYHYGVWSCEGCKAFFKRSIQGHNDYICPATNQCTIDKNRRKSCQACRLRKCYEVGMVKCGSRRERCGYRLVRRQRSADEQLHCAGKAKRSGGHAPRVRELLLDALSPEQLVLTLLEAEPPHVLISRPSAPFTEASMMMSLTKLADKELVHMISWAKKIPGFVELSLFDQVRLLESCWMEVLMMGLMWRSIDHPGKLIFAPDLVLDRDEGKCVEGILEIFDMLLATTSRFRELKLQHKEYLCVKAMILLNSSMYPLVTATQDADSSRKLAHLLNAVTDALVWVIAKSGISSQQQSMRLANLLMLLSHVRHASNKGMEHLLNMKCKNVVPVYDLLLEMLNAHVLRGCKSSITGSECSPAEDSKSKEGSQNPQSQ

DNA dC->dU-editing enzyme APOBEC-3G, sequence (Q9HC16 whole entry): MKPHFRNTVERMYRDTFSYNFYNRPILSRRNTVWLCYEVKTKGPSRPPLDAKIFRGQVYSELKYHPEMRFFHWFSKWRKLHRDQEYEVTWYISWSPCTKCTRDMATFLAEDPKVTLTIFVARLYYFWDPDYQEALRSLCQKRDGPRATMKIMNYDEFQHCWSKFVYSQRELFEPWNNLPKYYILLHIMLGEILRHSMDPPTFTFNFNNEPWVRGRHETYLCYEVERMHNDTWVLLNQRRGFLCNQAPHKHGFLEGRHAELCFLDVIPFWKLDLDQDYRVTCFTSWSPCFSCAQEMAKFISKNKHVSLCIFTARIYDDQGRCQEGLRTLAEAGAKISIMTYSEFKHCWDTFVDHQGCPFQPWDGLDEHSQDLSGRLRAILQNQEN

SMILES: CC(C)CSc1nnc(S)s1
- IC50 [1]: 3.32 µM (active)
- IC50 [2]: > 100 µM (inactive)

SMILES: Cc1[nH]c2ccccc2c1/C=N/Nc1ccc([N+](=O)[O-])cc1
- IC50 (cells [3]): 27 µM (active)
- IC50 [4]: < 0.4 µM (active)

SMILES: COc1ccc(Cc2nnc(S)n2N)cc1OC
- IC50 [5]: 31.9 µM (active)
- IC50 [1]: 17.8 µM (active)

SMILES: CCCCNC(=O)CC1N=C2c3ccccc3N=C(SCC(=O)Nc3ccc(OC)cc3)N2C1=O (stereo not drawn)
- IC50 (cells [3]): 37 µM (active)

SMILES: O=C1C2C3C=CC(C3)C2C(=O)N1CCCCN1C(=O)C2C3C=CC(C3)C2C1=O (stereo not drawn)
- IC50 [6]: > 64 µM (inactive)

SMILES: Cc1c(NC(=O)CSc2ccccc2F)c(=O)n(-c2ccccc2)n1C
- IC50 [5]: > 50 µM (not active)

SMILES: CN(C)c1ccc(/C=C(\C#N)C(=O)NCc2ccco2)cc1
- IC50 [7]: 15 µM (not active)
- EC50 [8]: > 300 µM (not active)
- IC50 [9]: 32 µM (not active)
- EC50 [10]: 23.7 µM (active)

SMILES: CCCN(CCC)S(=O)(=O)c1ccc(C(=O)N2CCCc3ccccc32)cc1
- EC50 (Mucolipin-3): 1.33 µM (active)
- EC50 (Ion channel NompC): > 29.9 µM (not active)

SMILES: Cc1cccc(Nc2ncnc3[nH]cnc23)c1
- IC50 (Leucine aminopeptidase): 71.4 µM (active)
- AC50 [11]: 75.3 µM (active)

SMILES: NC(=O)c1cc(-c2ccccc2)sc1NC(=O)Cc1ccc(S(=O)(=O)N2CCOCC2)s1
- IC50 [7]: > 5.47 µM (active)
- IC50 [9]: > 111 µM (not active)

SMILES: c1ccc(CSc2nnc(-c3ccco3)o2)cc1
- EC50 (cells [12]): > 350 µM (not active)
- EC50 (cells [13]): > 350 µM (not active)

SMILES: Cc1nc(NS(=O)(=O)c2ccccc2)sc1C(=O)NN
- IC50 (Leucine aminopeptidase): 114 µM (active)

SMILES: Cc1ccc(NC(=O)CCn2c(=S)oc3ccccc32)cc1
- IC50 [7]: 14.2 µM (not active)
- IC50 [9]: > 111 µM (not active)

SMILES: N#Cc1c(NCCCO)nc(NCc2ccccc2)c2c1CCN(Cc1ccccc1)C2
- IC50 [14]: > 50 µM (not active)
- EC50 [15]: 19.8 µM (active)
- EC50 [16]: 11.9 µM (active)

SMILES: CC(C)[C@H](NS(=O)(=O)c1ccc2c(c1)OCCO2)C(=O)OCC(=O)Nc1cccc(Cl)c1Cl
- EC50 (Mucolipin-3): 3.69 µM (active)
- EC50 (Ion channel NompC): > 29.9 µM (not active)

SMILES: Nc1cc(N)nc(SCC(=O)Nc2ccc3c(c2)OCCCO3)n1
- IC50 (Leucine aminopeptidase): 14.4 µM (active)

SMILES: Nc1c(C(=O)NCc2ccco2)sc2nc3c(cc12)C(=O)CCC3
- IC50 [6]: > 64 µM (inactive)
- IC50 (Estrogen receptor beta): 6.25 µM (not active)
- IC50 [4]: 3.38 µM (active)

SMILES: CC(=O)N1CCN(C2=NC(=O)/C(=C/c3ccc(OS(=O)(=O)c4ccccc4)cc3)S2)CC1
- IC50 (cells [3]): 37.9 µM (active)

SMILES: CC(C)CC1NC(=O)N(Cc2cc(=O)n3ccsc3n2)C1=O (stereo not drawn)
- EC50 (cells [12]): > 350 µM (not active)
- EC50 (cells [13]): > 350 µM (not active)

SMILES: Cc1cccc(-c2noc(CN(C(C)C)S(=O)(=O)c3ccc(F)cc3)n2)c1
- EC50 (Mucolipin-3): 1.77 µM (active)
- EC50 (Ion channel NompC): > 29.9 µM (not active)
